# Assays:
# DM1 human myoblast = test: Gene expression fold change in DM1 human myoblast; format: cell-based; conditions: IGF2 200 ng/mL
# Method: Myoblasts were cultured 48 h in the presence of factors (BMP7 50 ng/mL, Butyrate 100 nM, IGF2 200 ng/mL).
# Myoblasts were cultured 96 h in the presence of factors (IGF2 200 ng/mL). […] Myoblasts were cultured 48 h in the presence of factors (IGF2 200 ng/mL).
# RNA was isolated from each well (RNeasy Mini Kit, Qiagen) and cDNA was obtained by reverse-transcription (High Capacity Reverse Transcription Kit, Thermo Fisher Scientific). Real-time quantitative PCR was performed using QuantStudio3 (Thermo Fisher).
# (§1) IGF2 was tested individually for its ability to promote proliferation and/or fusion of human muscle progenitor cells from an individual with myotonic dystrophy type 1 (hMD)—a muscular dystrophy caused by mutations in the DMPK1 gene. The effect of IGF2 on myogenic activity was assayed in biological triplicate across a range of concentrations centered around expected physiological levels by adding each factor to hMD myoblasts for 72 hours with daily media changes (DMEM+2% horse serum) and a second pulse of factors at the first media change. After 72 or 96 hours, cells were pulsed for 2-5 hours with EdU (30 uM), ethanol fixed, stained with Hoescht 3342, immunostained for proliferation—as measured by the percent of cells staining positive for EdU (% EdU)-, and immunostained for differentiation—as measured by the increase in cellular area staining positive for embryonic myosin heavy chain (% eMyHC) relative to the negative controls, which received media and vehicle only. Wells were imaged on a Keyence BZ-100 at 4×, the images quantified in Cell Profiler, and the statistics were computed in R. Additionally, RNA was extracted from myoblast and select transcript abundances quantified by qPCR.
# DM1 human myoblast cells = test: Proliferation (EdU) of DM1 human myoblast; format: cell-based; conditions: 72 h for proliferation
# Method: FIG. 7A Bar graph of % EdU+ human myoblast (person) and FIG. 7B % area MyHC in response to IGF2. Myoblast were cultured 72 h for proliferation and 96 h for fusion in the presence of indicated factor. Mean∓S.D. Mean∓SD. Significant p-values (EdU: Vehicle˜IGF2: 6.8E-3, % eMyHC Area: Vehicle˜IGF2: 1.9E-4) (*p<0.05 by Students Two-Tailed T-test, n=3−6).
# as §1, with “The effect of IGF2 on myogenic activity was assayed in biological triplicate across a range of concentrations centered around expected physiological levels by adding each factor to hMD myoblasts for 72 hours with daily media changes (DMEM+2% horse serum) and a second pulse of factors at the first media change.” left out, “qPCR. […]” for “qPCR.”
# [1] = Pharmacokinetics after intravenous injection in mice; format: in vivo; conditions: mice 10-12 weeks old, dose 10 mg/kg (HSA-IGF2R61A), 600 ug/kg (IGF2), Non-Compartment Analysis
# Method: Murine pharmacokinetics (PK) represents the absorption, distribution, metabolism, and elimination of drugs from the body. The pharmacokinetic profile of the therapeutic polypeptides were determined in mice (10-12 weeks old). Mice were fed ad libitum and housed under controlled conditions of lighting (12-hour light/12-hour dark) and temperature (22-24° C.). Mice were allowed to acclimate for 3 days prior to the initiation of the experiment. Intravenous (IV) injection in 10-12 weeks old mice. Engineered mitogenic polypeptides concentrations in the samples were measured by ELISA. Various pharmacokinetics will be calculated as well as the absorption/elimination dynamics following different routes of administration.
# [2] = Backbone cleavage on expression from CHO cells (reducing SDS-PAGE, Western blot)
# Method: The amino acid backbone of IGF2 is cleaved when expressed from Chinese Hamster Ovary (CHO) cells (FIG. 13A) as visualized on a reducing SDS-PAGE and Western blot (FIG. 13B). The CHO cells were grown in a 37° C. incubator with a humidified atmosphere of 8% CO2 on an orbital shaker platform with a shaking speed 125 rpm to reach 4E6 cells/mL, followed by transferring the calculated volume of cells to fresh, pre-warmed ExpiCHO™ Expression Medium in a shake flask. Incubated flasks in a 37° C. incubator with a humidified atmosphere of 8% CO2 shook on an orbital shaker platform until cultures reached a density of 4×106-6×10^6 viable cells/mL. After mixing each plasmid with 100 ul SFM in a microtube; ExpiFectamine (8 ul×10.5=84 ul) with OptiPro medium (92 ul×10.5=966 ul) in a microtube; adding 100 ul into the plasmid tube and mix by pipetting; After 5 min, add 200 ul into each well and swirl to mix. mix enhancer (15×10.2=153 ul) with feed (600×10.2=6.12 ml), add 615 ul into each well. Culture supernatant collected at intervals was spun down at low speed and high speed, then frozen at −80 deg. Aliquots were analyzed for protein concentration by nanodrop, and then an equivalent amount loaded onto 4-12% SDS-PAGE gels for molecular weight distribution analysis. […]
# [3] = biological target: Insulin Degrading Enzyme (IDE) (Homo sapiens, UniProt P14735); conditions: Malito et al. Cell Mol Life Sci. 2008; read-out: affinity of IDE for IGF2 as a substrate; cited from earlier work
# [4] = 48 h, BMP7 50 ng/mL, Butyrate 100 nM
substance,measurement,setting,value
"IGF2: Human IGF2 polypeptide, amino acids 25 to 91 of SEQ ID NO. 32 (i.e. SEQ ID NO. 29)",ATP1B1 expression fold change compared to FM (vehicle),DM1 human myoblast; 48 h,3.018
same,MYF5 myogenic gene expression fold change compared to FM (vehicle),DM1 human myoblast; [4],0.730
same,MYODI myogenic gene expression fold change compared to FM (vehicle),DM1 human myoblast; [4],1.252
same,MYOG myogenic gene expression fold change compared to FM (vehicle),DM1 human myoblast; [4],2.972
same,CKM expression fold change compared to vehicle,DM1 human myoblast; 96 h,5.165
same,MYH3 expression fold change compared to vehicle,DM1 human myoblast; 96 h,14.833
same,EdU FC,DM1 human myoblast cells,2.18
same,Half-life,[1],2.85 h
same,cleavage of the amino acid backbone when expressed from CHO cells,[2],cleaved
same,Kd,[3],~100 nM
